Test results: US12522614B2, “Topical phosphoinositide 3-kinase inhibitors” (VENTHERA, INC., priority 2019, dated 2026)

Legend:
[1] = In vitro human skin permeation study of topical gel formulations (Franz diffusion cells); type: in vitro ADME; settings: saturated gel formulations, skin flux experiments
Description: The gel formulation of Example 8 was used as the donor phase to determine the permeation of Compound 1.002 through human skin and its effectiveness as a topical application. Three skin donors and three diffusion cells (for each donor) per formulation were used in the in vitro skin permeation experiments. Split thickness dermatomed (approximately at […] thickness) human cadaver skin, supplied by New York Firefighters Skin Bank, NY, was used to determine the permeation rate of the tested compound (i.e., the drug) in vitro. All in vitro skin permeation studies were conducted using the Vertical Diffusion Cells assembly with consoles (Model FDC-6), and heating controllers (Logan Instruments Inc. Somerset, NJ). Each assembly consisted of six vertical, jacketed (37° C.±0.5° C.) 12-mL Franz diffusion cells with magnetic stirrer and 1.767 cm^2 diffusion area.
(§1) Skin flux studies were run for a period of 48 hours. At predetermined intervals (2, 4, 8, 24 and 48 hours) after starting the experiment, the entire contents of the receiver compartment were collected for determining concentrations of the drug by HPLC. The receiver compartment was refilled with fresh receiver medium. The receiver medium was pH 7.4 phosphate buffer with 0.5 mg/ml of Oleath 20 with the saturation concentration of the drug in the receptor medium being 0.152 mg/ml. This solubility of the drug in the receiver medium was enough to ensure sink conditions throughout each collection interval.
Samples of the receptor phase were obtained at 2, 4, 8, 12, 24 and 48 h and concentrations of Compound 1.002 and 3-(4-morpholinothieno(3,2-d)pyrimidin-2-yl)phenol (metabolite of Compound 1.002, abbreviated as MTPP) were determined using a validated HPLC method. The metabolism of Compound 1.002 to MTPP takes place in the human skin by esterase enzymes.
HPLC method: Column—Gemini C-18 4.6×150 mm, 5 μm particle size; Mobile Phase—water:acetonitrile 25:75 containing 0.1% TFA; Flow Rate—1 mL/min; Detection—274 nm; Column Temperature—40° C.; and Run Time—10 min. The retention times for MTPP and Compound 1.002 were 3.9 and 7.2 minutes, respectively.
The skin flux of drugs and cumulative amount of drugs permeated (sum of MTPP and Compound 1.002) for a period of 48 hours were calculated and are shown in Table 3. FIG. 3 represents a plot of Cumulative amount permeated versus time.

[2] = Saturation concentration in formulation or receiver medium; type: physicochemical; settings: gel formulation with excipients of Example 8 (Table 2)
Experimental: The liquid excipients, i.e. DMSO, oleic acid, Transcutol® P, and dipropylene glycol were mixed in a 20-mL vial, by vortex agitation. The active ingredient, a compound of formula (I), for example Compound 1.002 was then added, and the vial content was sonicated for 10 minutes to dissolve the compound. […] Hydroxylpropyl cellulose (HPC) was added, and the vial was agitated by vortex for another ten minutes to obtain the gel formulation. The viscosity of the clear gel was measured to be in a range of about 7,000 to 10,000 centipoise (cp).
as §1

[3] = In vitro human skin permeation study of topical gel formulations (Franz diffusion cells); type: in vitro ADME; settings: human skin; for Cumulative permeation, Compound 1.012 / Hydrolysis of Cmpd. 1.012 to MTPP: Study-6, gel saturated at 58 mg/mL; for Cumulative permeation (intact compound): Study-4, saturated gel
[4] = Accelerated stability study of topical gel formulations at 80° C.; type: physicochemical; settings: gel formulation (Table 2 excipients), 80° C.
Experimental: Topical gel formulations were prepared using excipients as shown in Table 2 according to Example 8, in which Compounds 1.002, 1.012, and 1.006 were used as the active ingredient, respectively. These gel formulations were subjected to stability study at 80° C. for 10 days. Stability under the condition of at 80° C. for 10 days is expected to be approximately equivalent to the stability for three (3) years at room temperature. A relative purity of the tested compound after being exposed for 5 days and 10 days at 80° C. was determined by HPLC, as compared to its initial purity (at day 0).
The values shown in the table are percent hydrolysis of the respective compounds to the parent compound MTPP.
Topical gel formulations of Compound 1.002 were prepared using excipients as shown in Table 2 according to Example 8, in which the content of oleic acid varied at 1%, 2%, 5%, and 10%, respectively. These gel formulations were subjected to stability study at 80° C. for 10 days, which is expected to be approximately equivalent to the stability for three (3) years at room temperature. A purity of the tested compound on day 0, 5, 7, and 10 at 80° C. was determined by HPLC. The detected impurity of the tested compound appears to be the hydrolysis product, as MTPP. Table 17 represents stability data of Compound 1.002 in topical formulations having oleic acid at various contents.
Gel formulations of Example 17 were subjected to stability study at 80° C. for 10 days. Stability under the condition of at 80° C. for 10 days is expected to be approximately equivalent to the stability for three (3) years at room temperature. A relative purity of Compound 1.002 after being exposed for 5 days and 10 days at 80° C. was determined by HPLC, as compared to its initial purity (at day 0).

[5] = biological target: T1, PI3Kg (p110g) (Homo sapiens, UniProt P48736); assay: Lipid kinase inhibitory activity, ADP-Glo; type: biochemical; settings: γ
T1 construct: purchased Reaction Biology Corporation (RBC)
Experimental: (§2) Lipid kinases: Lipid kinases from Reaction Biology Corporation (RBC) in ADP-Glo format were used.
(§3) Assay Description: The kinase reactions utilized ATP and produced ADP as a byproduct. The ADP production was quantified by ADP-Glo luminescence detection. This assay was a 3-step reaction. First, the kinase reaction with lipid substrate was carried out in the presence of ATP, and the reaction was quenched and depleted remaining ATP with ADP-Glo™ reagent, and then finally ADP was converted to ATP which was measured using a luciferase/luciferin reaction.
(§4) Assay Procedure: The assay was performed according to the steps as follows: • 1. Preparing substrate in freshly prepared reaction buffer; • 2. Delivering kinase into the substrate solution and gently mixing; • 3. Delivering compounds in […] into the kinase reaction mixture by Acoustic technology (Echo550; nanoliter range), incubating for 20 minutes at room temperature; • 4. Delivering ATP into the reaction mixture to initiate the reaction; • 5. Incubating for 30 minutes at 30° C.; • 6. Quenching the reaction with ADP-Glo reagent and incubating for 40 minutes; • 7. Adding Detection Mixture and incubating for 30 minutes; and • 8. Measuring luminescence.
(§5) Data Analysis: The luminescence was converted into μM ADP production based on ADP standard curves. The nonlinear regression to obtain the standard curve and IC50 values were performed using Graphpad Prism software.

[6] = biological target: T2, MTOR/FRAP1 (Homo sapiens, UniProt P42345); assay: Lipid kinase inhibitory activity, ADP-Glo; type: biochemical
T2 construct: purchased Reaction Biology Corporation (RBC)
Experimental: as §2, §3, §4, §5

[7] = biological target: T3, PI3Ka (p110a/p85a) (Homo sapiens, UniProt P42336); assay: Lipid kinase inhibitory activity, ADP-Glo; type: biochemical; settings: α
T3 construct: purchased Reaction Biology Corporation (RBC)
Experimental: as §2, §3, §4, §5

[8] = biological target: T4, PI3K (p110a(H1047R)/p85a) (Homo sapiens, UniProt P42336, H1047R); assay: Lipid kinase inhibitory activity, ADP-Glo; type: biochemical; settings: α H1047R
T4 construct: purchased Reaction Biology Corporation (RBC)
Experimental: as §2, §3, §4, §5

[9] = biological target: T5, PI3Kd (p110d/p85a) (Homo sapiens, UniProt O00329); assay: Lipid kinase inhibitory activity, ADP-Glo; type: biochemical; settings: δ
T5 construct: purchased Reaction Biology Corporation (RBC)
Experimental: as §2, §3, §4, §5

[10] = biological target: T6, PI3K (p110a(E542K)/p85a) (Homo sapiens, UniProt P42336, E542K); assay: Lipid kinase inhibitory activity, ADP-Glo; type: biochemical; settings: α E542K
T6 construct: purchased Reaction Biology Corporation (RBC)
Experimental: as §2, §3, §4, §5

[11] = biological target: T7, PI3Kb (p110b/p85a) (Homo sapiens, UniProt P42338); assay: Lipid kinase inhibitory activity, ADP-Glo; type: biochemical; settings: β
T7 construct: purchased Reaction Biology Corporation (RBC)
Experimental: as §2, §3, §4, §5

[12] = biological target: T8, PI3K (p110a(E545K)/p85a) (Homo sapiens, UniProt P42336, E545K); assay: Lipid kinase inhibitory activity, ADP-Glo; type: biochemical; settings: α E545K
T8 construct: purchased Reaction Biology Corporation (RBC)
Experimental: as §2, §3, §4, §5

[13] = test system: cancer cell; settings: U.S. Pat. No. 6,838,457; cited from earlier work
[14] = test system: PI3K; settings: U.S. Pat. No. 6,838,457; cited from earlier work
[15] = Study-5, Table 6A experiment, saturated gel, 2 h
[16] = Study-5, Table 6A experiment, saturated gel, 4 h
[17] = Study-5, Table 6A experiment, saturated gel, 8 h
[18] = Study-5, Table 6A experiment, saturated gel, 24 h
[19] = Study-5, Table 6A experiment, saturated gel, 48 h
[20] = Study-5, Table 6B experiment, gel saturated at 215 mg/mL, 2 h
[21] = Study-5, Table 6B experiment, gel saturated at 215 mg/mL, 4 h
[22] = Study-5, Table 6B experiment, gel saturated at 215 mg/mL, 8 h
[23] = Study-5, Table 6B experiment, gel saturated at 215 mg/mL, 24 h
[24] = Study-5, Table 6B experiment, gel saturated at 215 mg/mL, 48 h

T4 sequence (P42336 whole entry H1047R): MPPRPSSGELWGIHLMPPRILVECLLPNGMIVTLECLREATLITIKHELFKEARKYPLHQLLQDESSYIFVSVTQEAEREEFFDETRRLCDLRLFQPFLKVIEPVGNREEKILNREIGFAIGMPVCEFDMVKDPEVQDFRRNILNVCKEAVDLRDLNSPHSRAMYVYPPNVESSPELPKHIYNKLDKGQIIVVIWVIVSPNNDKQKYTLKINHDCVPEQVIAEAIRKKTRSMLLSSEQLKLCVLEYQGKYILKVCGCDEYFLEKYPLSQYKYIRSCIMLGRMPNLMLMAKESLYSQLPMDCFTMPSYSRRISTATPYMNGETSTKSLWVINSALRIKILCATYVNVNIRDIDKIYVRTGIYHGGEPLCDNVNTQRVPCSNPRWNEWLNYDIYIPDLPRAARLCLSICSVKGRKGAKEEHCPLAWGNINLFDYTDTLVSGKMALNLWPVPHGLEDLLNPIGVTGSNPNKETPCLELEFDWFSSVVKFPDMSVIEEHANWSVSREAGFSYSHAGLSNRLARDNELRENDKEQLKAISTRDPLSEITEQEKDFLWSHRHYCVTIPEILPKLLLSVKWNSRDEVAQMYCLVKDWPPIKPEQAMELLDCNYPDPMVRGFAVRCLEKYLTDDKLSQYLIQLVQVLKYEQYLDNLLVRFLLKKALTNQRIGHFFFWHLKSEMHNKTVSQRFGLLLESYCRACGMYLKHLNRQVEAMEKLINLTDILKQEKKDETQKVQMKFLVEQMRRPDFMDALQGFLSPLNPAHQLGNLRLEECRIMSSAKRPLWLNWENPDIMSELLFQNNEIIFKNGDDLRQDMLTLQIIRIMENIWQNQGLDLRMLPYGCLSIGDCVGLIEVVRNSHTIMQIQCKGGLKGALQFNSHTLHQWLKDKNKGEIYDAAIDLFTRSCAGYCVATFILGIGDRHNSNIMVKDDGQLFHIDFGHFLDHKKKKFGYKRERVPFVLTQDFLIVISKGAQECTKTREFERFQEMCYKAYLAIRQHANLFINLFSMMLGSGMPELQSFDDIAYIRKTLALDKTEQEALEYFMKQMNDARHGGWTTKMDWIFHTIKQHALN
T4 sequence (P27986 whole entry partner): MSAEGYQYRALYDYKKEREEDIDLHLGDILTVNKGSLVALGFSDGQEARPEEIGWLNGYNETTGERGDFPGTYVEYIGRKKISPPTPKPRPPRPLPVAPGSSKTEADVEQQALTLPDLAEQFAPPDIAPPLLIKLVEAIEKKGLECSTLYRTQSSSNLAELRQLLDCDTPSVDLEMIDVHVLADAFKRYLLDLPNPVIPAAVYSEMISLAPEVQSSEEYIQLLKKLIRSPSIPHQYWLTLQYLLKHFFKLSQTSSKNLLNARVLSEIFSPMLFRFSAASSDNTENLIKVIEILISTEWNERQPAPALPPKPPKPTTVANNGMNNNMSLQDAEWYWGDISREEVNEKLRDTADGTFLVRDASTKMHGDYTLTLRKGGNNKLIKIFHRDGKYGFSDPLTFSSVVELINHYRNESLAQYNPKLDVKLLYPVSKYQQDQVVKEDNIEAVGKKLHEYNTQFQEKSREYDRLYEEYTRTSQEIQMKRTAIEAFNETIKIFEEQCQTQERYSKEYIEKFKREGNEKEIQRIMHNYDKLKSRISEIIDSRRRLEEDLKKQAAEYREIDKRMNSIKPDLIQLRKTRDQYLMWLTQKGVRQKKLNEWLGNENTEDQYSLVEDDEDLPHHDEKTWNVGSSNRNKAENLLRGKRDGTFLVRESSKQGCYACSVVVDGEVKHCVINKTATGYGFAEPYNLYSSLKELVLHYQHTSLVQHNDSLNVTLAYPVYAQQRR
T5 sequence (O00329 whole entry): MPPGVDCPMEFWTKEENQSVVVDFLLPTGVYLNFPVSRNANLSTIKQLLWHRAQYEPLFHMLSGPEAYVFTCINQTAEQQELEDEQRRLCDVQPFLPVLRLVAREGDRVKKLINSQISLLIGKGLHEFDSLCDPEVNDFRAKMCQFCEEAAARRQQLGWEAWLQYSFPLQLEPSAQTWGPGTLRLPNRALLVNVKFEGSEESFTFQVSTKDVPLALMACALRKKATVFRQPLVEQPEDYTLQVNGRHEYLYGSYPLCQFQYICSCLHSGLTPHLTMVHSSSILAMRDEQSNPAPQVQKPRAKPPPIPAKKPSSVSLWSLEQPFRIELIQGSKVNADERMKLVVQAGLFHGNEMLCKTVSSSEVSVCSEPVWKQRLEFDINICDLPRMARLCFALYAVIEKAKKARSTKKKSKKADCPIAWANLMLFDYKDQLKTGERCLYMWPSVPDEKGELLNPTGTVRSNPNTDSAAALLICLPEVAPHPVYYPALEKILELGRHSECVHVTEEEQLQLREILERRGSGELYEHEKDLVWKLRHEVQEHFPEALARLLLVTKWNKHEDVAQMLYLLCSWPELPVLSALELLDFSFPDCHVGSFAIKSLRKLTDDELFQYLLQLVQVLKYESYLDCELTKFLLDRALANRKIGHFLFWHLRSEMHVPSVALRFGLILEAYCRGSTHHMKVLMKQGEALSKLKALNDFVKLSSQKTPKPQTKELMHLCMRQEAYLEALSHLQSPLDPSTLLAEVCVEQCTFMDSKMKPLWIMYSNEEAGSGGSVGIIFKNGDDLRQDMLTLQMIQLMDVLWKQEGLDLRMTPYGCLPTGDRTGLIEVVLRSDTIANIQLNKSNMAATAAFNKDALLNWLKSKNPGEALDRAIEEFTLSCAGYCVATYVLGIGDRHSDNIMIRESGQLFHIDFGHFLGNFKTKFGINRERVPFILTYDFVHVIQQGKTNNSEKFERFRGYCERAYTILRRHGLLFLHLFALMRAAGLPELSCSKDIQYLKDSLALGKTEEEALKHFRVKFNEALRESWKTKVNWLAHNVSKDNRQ
T5 sequence (P27986 whole entry partner): as the sequence (P27986 whole entry partner) above
T3 sequence (P42336 whole entry): as the sequence (P42336 whole entry H1047R) above, with R1047H counted along it
T3 sequence (P27986 whole entry partner): as the sequence (P27986 whole entry partner) above
T6 sequence (P42336 whole entry E542K): as the sequence (P42336 whole entry H1047R) above, with E542K, R1047H counted along it
T6 sequence (P27986 whole entry partner): as the sequence (P27986 whole entry partner) above
T1 sequence (P48736 whole entry): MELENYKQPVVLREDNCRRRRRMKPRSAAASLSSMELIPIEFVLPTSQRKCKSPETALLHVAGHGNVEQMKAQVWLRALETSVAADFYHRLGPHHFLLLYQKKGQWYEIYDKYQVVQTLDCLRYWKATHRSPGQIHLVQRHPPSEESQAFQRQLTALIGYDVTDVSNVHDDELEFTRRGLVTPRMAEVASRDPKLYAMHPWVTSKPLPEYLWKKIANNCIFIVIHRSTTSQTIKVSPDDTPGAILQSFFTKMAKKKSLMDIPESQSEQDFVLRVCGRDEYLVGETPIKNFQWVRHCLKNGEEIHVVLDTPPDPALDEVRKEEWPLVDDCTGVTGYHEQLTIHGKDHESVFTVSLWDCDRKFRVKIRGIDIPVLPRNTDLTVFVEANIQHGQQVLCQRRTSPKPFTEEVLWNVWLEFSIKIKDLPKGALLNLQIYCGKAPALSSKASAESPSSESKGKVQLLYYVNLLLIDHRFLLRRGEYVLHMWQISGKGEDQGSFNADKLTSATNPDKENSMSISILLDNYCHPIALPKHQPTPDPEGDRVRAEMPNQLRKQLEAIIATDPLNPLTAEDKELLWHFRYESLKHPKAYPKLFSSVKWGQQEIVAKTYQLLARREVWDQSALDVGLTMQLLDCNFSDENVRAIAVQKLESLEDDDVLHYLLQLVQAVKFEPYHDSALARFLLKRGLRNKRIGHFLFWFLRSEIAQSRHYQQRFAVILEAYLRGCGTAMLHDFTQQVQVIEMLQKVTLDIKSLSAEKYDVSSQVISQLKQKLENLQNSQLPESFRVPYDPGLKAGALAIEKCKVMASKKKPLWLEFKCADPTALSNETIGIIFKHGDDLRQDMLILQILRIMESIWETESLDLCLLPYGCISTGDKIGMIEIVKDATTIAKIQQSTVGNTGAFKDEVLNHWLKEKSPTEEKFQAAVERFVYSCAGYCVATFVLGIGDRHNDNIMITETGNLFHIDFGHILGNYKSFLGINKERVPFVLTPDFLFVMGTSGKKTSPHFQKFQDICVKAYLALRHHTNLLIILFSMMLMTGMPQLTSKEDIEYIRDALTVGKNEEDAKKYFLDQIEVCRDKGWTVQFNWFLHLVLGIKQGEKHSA
T8 sequence (P42336 whole entry E545K): as the sequence (P42336 whole entry H1047R) above, with E545K, R1047H counted along it
T8 sequence (P27986 whole entry partner): as the sequence (P27986 whole entry partner) above

## CCCCCC(=O)Oc1cccc(-c2nc(N3CCOCC3)c3sccc3n2)c1 [Compound 1.006, 3-(4-Morpholinothieno[3,2-d]pyrimidin-2-yl)phenyl Hexanoate]
[1]
  Metabolism to MTPP during permeation through human skin: metabolize into MTPP
[2]
  Saturation concentration in the gel formulation: 215 mg/mL
[3]; [15]
  Cumulative permeation, Compound 1.006: 0.0 μg/cm^2
  Hydrolysis of Cmpd. 1.006 to MTPP: 100%
[3]; [16]
  Cumulative permeation, Compound 1.006: 0.0 μg/cm^2
  Hydrolysis of Cmpd. 1.006 to MTPP: 100%
[3]; [17]
  Cumulative permeation, Compound 1.006: 1.0 μg/cm^2
  Hydrolysis of Cmpd. 1.006 to MTPP: 96.7%
[3]; [18]
  Cumulative permeation, Compound 1.006: 13.0 μg/cm^2
  Hydrolysis of Cmpd. 1.006 to MTPP: 79.5%
[3]; [19]
  Cumulative permeation, Compound 1.006: 30.5 μg/cm^2
  Hydrolysis of Cmpd. 1.006 to MTPP: 82.0%
[3]; [20]
  Cumulative permeation, Compound 1.006: 0.0 μg/cm^2
  Hydrolysis of Cmpd. 1.006 to MTPP: 100%
[3]; [21]
  Cumulative permeation, Compound 1.006: 0.5 μg/cm^2
  Hydrolysis of Cmpd. 1.006 to MTPP: 93.3%
[3]; [22]
  Cumulative permeation, Compound 1.006: 0.5 μg/cm^2
  Hydrolysis of Cmpd. 1.006 to MTPP: 97.8%
[3]; [23]
  Cumulative permeation, Compound 1.006: 0.6 μg/cm^2
  Hydrolysis of Cmpd. 1.006 to MTPP: 98.9%
[3]; [24]
  Cumulative permeation, Compound 1.006: 0.6 μg/cm^2
  Hydrolysis of Cmpd. 1.006 to MTPP: 99.4%
[4]; Day 0
  Relative Purity: 100%
[4]; Day 5
  Relative Purity: 94%
[4]; Day 10
  Relative Purity: 92%

## CCOC(=O)Oc1cccc(-c2nc(N3CCOCC3)c3sccc3n2)c1 [Compound 1.012, Ethyl (3-(4-morpholinothieno[3,2-d]pyrimidin-2-yl)phenyl) Carbonate]
[1]
  Metabolism to MTPP during permeation through human skin: completely metabolize into MTPP
[2]
  Saturation concentration in the gel formulation: 58 mg/mL
[3]; 2 h
  Cumulative permeation, Compound 1.012: 0.0 μg/cm^2
  Hydrolysis of Cmpd. 1.012 to MTPP: 100%
[3]; 4 h
  Cumulative permeation, Compound 1.012: 0.0 μg/cm^2
  Hydrolysis of Cmpd. 1.012 to MTPP: 100%
[3]; 8 h
  Cumulative permeation, Compound 1.012: 0.0 μg/cm^2
  Hydrolysis of Cmpd. 1.012 to MTPP: 100%
[3]; 24 h
  Cumulative permeation, Compound 1.012: 0.0 μg/cm^2
  Hydrolysis of Cmpd. 1.012 to MTPP: 100%
[3]; 48 h
  Cumulative permeation, Compound 1.012: 0.0 μg/cm^2
  Hydrolysis of Cmpd. 1.012 to MTPP: 100%
[4]; Day 0
  Relative Purity: 100%
[4]; Day 5
  Relative Purity: 99%
[4]; Day 10
  Relative Purity: 96%

## Oc1cccc(-c2nc(N3CCOCC3)c3sccc3n2)c1 [MTPP, 3-(4-morpholinothieno(3,2-d)pyrimidin-2-yl)phenol, reference compound]
[1]
  Metabolism to MTPP during permeation through human skin: permeated as its intact compound
[5]
  IC50: 90 nM
[6]
  IC50: 218 nM
[7]
  IC50: 5.2 nM
[8]
  IC50: 7.2 nM
[9]
  IC50: 19 nM
[10]
  IC50: 5.6 nM
[11]
  IC50: 38 nM
[12]
  IC50: 6.3 nM
[3]; 2 h
  Cumulative permeation (intact compound): 0.23 μg/cm^2
[3]; 4 h
  Cumulative permeation (intact compound): 4.74 μg/cm^2
[3]; 8 h
  Cumulative permeation (intact compound): 15.85 μg/cm^2
[3]; 24 h
  Cumulative permeation (intact compound): 43.32 μg/cm^2
[3]; 48 h
  Cumulative permeation (intact compound): 70.13 μg/cm^2
[13]
  Cancer cell growth inhibiting activity: cancer cell growth inhibiting activity
[14]
  PI3K inhibiting activity: excellent PI3K inhibiting activity
